The values below come from patent US20240124487A1, “BRANCHED MACROCYCLIC 4-(PYRAZOL-5-YL)-INDOLE DERIVATIVES AS INHIBITORS OF MCL-1” (JANSSEN PHARMACEUTICA NV, priority 2020, published 2024).

Assay [1] has as its target Myeloid Cell Leukemia 1 (Mcl-1) (Homo sapiens (Human), UniProt Q07820). As to the kind of experiment: Terbium labeled Mcl-1 HTRF binding assay (displacement of Cy5-labeled BIM BH3 peptide). The note with it: 25 pM Tb-Mcl-1, 8 nM Cy5 Bim peptide, Ki=IC50/(1+[L]/Kd), [L]=8 nM, Kd=10 nM, read-out: TB-MCL1 Ki. On the procedure:
Terbium labeled Myeloid Cell Leukemia 1 (Mcl-1) homogeneous time-resolved fluorescence (HTRF) binding assay utilizing the BIM BH3 peptide (H2N-(C/Cy5Mal) WIAQELRRIGDEFN-OH) as the binding partner for Mcl-1.
This assay evaluated inhibition of the BH3 domain: Mcl-1 interaction by measuring the displacement of Cy5-labeled BIM BH3 peptide (H2N—(C/Cy5Mal) WIAQELRRIGDEFN-OH) in the HTRF assay format.
The following assay and stock buffers were prepared for use in the assay: (a) Stock buffer: 10 mM Tris-HCl, pH=7.5+150 mM NaCl, filtered, sterilized, and stored at 4° C.; and (b) 1× assay buffer, where the following ingredients were added fresh to stock buffer: 2 mM dithiothreitol (DTT), 0.0025% Tween-20, 0.1 mg/mL bovine serum albumin (BSA). The 1×Tb-Mcl-1+Cy5 Bim peptide solution was prepared by diluting the protein stock solution using the 1× assay buffer (b) to 25 pM Tb-Mcl-1 and 8 nM Cy5 Bim peptide.
Using the Acoustic ECHO, 100 nL of 100× test compound(s) were dispensed into individual wells of a white 384-well Perkin Elmer Proxiplate, for a final compound concentration of 1× and final DMSO concentration of 1%. Inhibitor control and neutral control (NC, 100 nL of 100% DMSO) were stamped into columns 23 and 24 of assay plate, respectively. Into each well of the plate was then dispensed 10 μL of the 1×Tb-Mcl-1+Cy5 Bim peptide solution. The plate was centrifuged with a cover plate at 1000 rpm for 1 minute, then incubated for 60 minutes at room temperature with plates covered. The TR-FRET signal was read on an BMG PHERAStar FSX MicroPlate Reader at room temperature using the HTRF optic module (HTRF: excitation: 337 nm, light source: laser, emission A: 665 nm, emission B: 620 nm, integration start: 60 μs, integration time: 400 pts).
The BMG PHERAStar FSX MicroPlate Reader was used to measure fluorescence intensity at two emission wavelengths—665 nm and 620 nm—and report relative fluorescence units (RFU) for both emissions, as well as a ratio of the emissions (665 nm/620 nm)*10,000. The RFU values were normalized to percent inhibition as follows:
% inhibition=(((NC−IC)−(compound−IC))/(NC−IC))*100
where IC (inhibitor control, low signal)=mean signal of 1×Tb-MC1-1+Cy5 Bim peptide+inhibitor control or 100% inhibition of Mcl-1; NC (neutral control, high signal)=mean signal 1×Tb-MC1-1+Cy5 Bim peptide with DMSO only or 0% inhibition
An 11-point dose response curve was generated to determine IC50 values (using GenData) based on the following equation:
Y=Bottom+(Top−Bottom)/(1+10^((log IC50−X)*HillSlope))
where Y=% inhibition in the presence of X inhibitor concentration; Top=100% inhibition derived from the IC (mean signal of Mcl-1+inhibitor control); Bottom=0% inhibition derived from the NC (mean signal of Mcl-1+DMSO); Hillslope=Hill coefficient; and IC50=concentration of compound with 50% inhibition in relation to top/neutral control (NC).
In this assay [L]=8 nM and Kd=10 nM
Representative compounds of the present invention were tested according to the procedure as described above, with results as listed in the Table below (n.d. means not determined).
On the technique in general: TR-FRET usually uses a lanthanide donor and a delayed reading to cut background.

Assay [2] deals with MOLP-8 human multiple myeloma cell line. As to the kind of experiment: MOLP8 Caspase-Glo 3/7 apoptosis induction assay. Format: cell-based. The conditions noted are these: MOLP-8 cells, 2 hours incubation at 37° C., averaged values over all runs on all batches. An excerpt: MCL-1 is a regulator of apoptosis and is highly over-expressed in tumor cells that escape cell death. The assay evaluates the cellular potency of small-molecule compounds targeting regulators of the apoptosis pathway, primarily MCL-1, Bfl-1, Bcl-2, and other proteins of the Bcl-2 family. Protein-protein inhibitors disrupting the interaction of anti-apoptotic regulators with BH3-domain proteins initiate apoptosis.
The Caspase-Glo® 3/7 Assay is a luminescent assay that measures caspase-3 and -7 activities in purified enzyme preparations or cultures of adherent or suspension cells. The assay provides a proluminescent caspase-3/7 substrate, which contains the tetrapeptide sequence DEVD. This substrate is cleaved to release aminoluciferin, a substrate of luciferase used in the production of light. Addition of the single Caspase-Glo® 3/7 Reagent in an “add-mix-measure” format results in cell lysis, followed by caspase cleavage of the substrate and generation of a “glow-type” luminescent signal.
This assay uses the MOLP-8 human multiple myeloma cell line, which is sensitive to MCL-1 inhibition.
Materials: • Perkin Elmer Envision • Multidrop 384 and small volume dispensing cassettes • Centrifuge • Countess automated cell counter • Countess counting chamber slides • Assay plate: ProxiPlate-384 Plus, White 384-shallow well Microplate • Sealing tape: Topseal A plus • T175 culture flask
Cell cultures were maintained between 0.2 and 2.0×10^6 cells/mL. The cells were harvested by collection in 50 mL conical tubes. The cells were then pelleted at 500 g for 5 mins before removing supernatant and resuspension in fresh pre-warmed culture medium. The cells were counted and diluted as needed.
The assay reagent was prepared by transferring the buffer solution to the substrate vial and mixing. The solution may be stored for up to 1 week at 4° C. with negligible loss of signal.
Compounds were delivered in assay-ready plates (Proxiplate) and stored at −20° C.
Assays always include 1 reference compound plate containing reference compounds. The plates were spotted with 40 nL of compounds (0.5% DMSO final in cells; serial dilution; 30 μM highest conc. 1/3 dilution, 10 doses, duplicates). The compounds were used at room temperature and 4 μL of pre-warmed media was added to all wells except column 2 and 23. The negative control was prepared by adding 1% DMSO in media. The positive control was prepared by adding the appropriate positive control compound in final concentration of 60 μM in media. The plate was prepared by adding 4 μL negative control to column 23, 4 μL positive control to column 2 and 4 μL cell suspension to all wells in the plate. The plate with cells was then incubated at 37° C. for 2 hours. The assay signal reagent is the Caspase-Glo solution described above, and 8 μL was added to all wells. The plates were then sealed and measured after 30 minutes.
The activity of a test compound was calculated as percent change in apoptosis induction as follows: • LC=median of the Low Control values • =Central Reference in Screener • =DMSO • =0% • HC=Median of the High Control values • =Scale Reference in Screener • =30 μM of positive control • =100% apoptosis induction
% Effect (AC50)=100−((sample−LC)/(HC−LC))*100
% Control=(sample/HC)*100
% Control min=((sample−LC)/(HC−LC))*100

pKi: −log10 of the molar value.

Myeloid Cell Leukemia 1 (Mcl-1), sequence (Q07820 whole entry): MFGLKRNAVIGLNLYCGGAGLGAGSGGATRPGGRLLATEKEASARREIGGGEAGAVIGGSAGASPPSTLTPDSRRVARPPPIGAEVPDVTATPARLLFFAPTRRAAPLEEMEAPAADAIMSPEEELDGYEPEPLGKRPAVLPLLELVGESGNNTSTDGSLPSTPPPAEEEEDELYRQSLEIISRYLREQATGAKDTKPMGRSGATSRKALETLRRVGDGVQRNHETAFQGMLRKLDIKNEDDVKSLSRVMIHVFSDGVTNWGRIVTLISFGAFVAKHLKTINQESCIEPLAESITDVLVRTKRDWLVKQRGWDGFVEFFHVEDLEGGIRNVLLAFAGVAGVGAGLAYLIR

In general, pKi refers to the Ki on a negative log10 scale, so that one unit is a factor of ten. One may read the AC50 as the concentration at which the activity in the assay is half-maximal. A lower AC50 goes with greater potency. As to `Cc1c(C(=O)O)n2c3ccc(Cl)c(c13)-c1c(nn(C)c1C)C(CCCO)OCc1cc(n(C)n1)CCc1cc(c3ccc(F)cc3c1)OCCC2` (single isomer, unassigned) [Compound 10], the pKi in assay [1] is 10.55. The same molecule came in with a concentration at half-maximal activity (AC50) in assay [2] of 1060 nM.

With `COCCCC1OCc2cc(n(C)n2)CCc2cc(c3ccc(F)cc3c2)OCCCn2c(C(=O)O)c(C)c3c(c(Cl)ccc32)-c2c1nn(C)c2C` (single isomer, unassigned) [Compound 12], the pKi in assay [1] is 10.82. This molecule also had an AC50 in assay [2] of 57.8 nM.

Regarding `COc1ccc(COC2CCc3cc(n(C)n3)CCc3cc(c4ccc(F)cc4c3)OCCCn3c(C(=O)O)c(C)c4c(c(Cl)ccc43)-c3c2nn(C)c3C)cc1` (single isomer, unassigned) [Compound 23], in assay [1], the pKi is 10.14. In assay [2], this molecule returned an AC50 of 169 nM.

`C=CC1OCc2cc(n(C)n2)CCc2cc(c3ccc(F)cc3c2)OCCCn2c(C(=O)O)c(C)c3c(c(Cl)ccc32)-c2c1nn(C)c2C` (single isomer, unassigned) [Compound 1]: the pKi in assay [1] is 10.23. Half-maximal activity in assay [2] (AC50) was put at 101 nM.

As to `COCCC1OCc2cc(n(C)n2)CCc2cc(c3ccc(F)cc3c2)OCCCn2c(C(=O)O)c(C)c3c(c(Cl)ccc32)-c2c1nn(C)c2C` (single isomer, unassigned) [Compound 3], the pKi in assay [1] was 10.41. This molecule returned an AC50 in assay [2] of 154 nM.

Turning to `Cc1c(C(=O)O)n2c3ccc(Cl)c(c13)-c1c(nn(C)c1C)C(CN1CCOCC1)OCc1cc(n(C)n1)CCc1cc(c3ccc(F)cc3c1)OCCC2` (single isomer, unassigned) [Compound 13], the pKi in assay [1] was 10.24. Besides, the activity in assay [2] (Homo sapiens, MOLP-8, 2 h) was half-maximal at 1370 nM (AC50).

Regarding `C=CC1OCc2cc(n(C)n2)CCc2cc(c3ccc(F)cc3c2)OCCCn2c(C(=O)O)c(C)c3c(c(Cl)ccc32)-c2c1nn(C)c2C` (single isomer, unassigned) [Compound 2], in assay [1], the pKi is 10.62. In assay [2], this molecule showed an AC50 of 19.5 nM.

As to `Cc1c(C(=O)O)n2c3ccc(Cl)c(c13)-c1c(nn(C)c1C)C(CCN1CCN(C)CC1)OCc1cc(n(C)n1)CCc1cc(c3ccc(F)cc3c1)OCCC2` (single isomer, unassigned) [Compound 8], the pKi in assay [1] was 10.89. Moreover, the activity in assay [2] (Homo sapiens, MOLP-8, 2 h) was half-maximal at 1160 nM (AC50).

For the molecule `COCCC1OCc2cc(n(C)n2)CCc2cc(c3ccc(F)cc3c2)OCCCn2c(C(=O)O)c(C)c3c(c(Cl)ccc32)-c2c1nn(C)c2C` (single isomer, unassigned) [Compound 4], the pKi in assay [1] is 11.05. In addition, in assay [2], the half-maximal activity concentration (AC50) is 28.4 nM.
